Patent US11033641B2, “Radiolabelled mGluR2/3 pet ligands” (Janssen Pharmaceutica NV, priority 2015, dated 2021)

Experiment: Ex-vivo biodistribution in SD rats
Set-up: species or system Sprague Dawley rats
Description: Sprague-Dawley rats obtained from Harlan (the Netherlands), were housed in groups of four to six per cage until treatment. They were kept at a constant temperature of 21° C. and at a 12-h light/dark cycle, in which lights were switched on at 8:00 a.m. Animals had unrestricted access to food (Teklad Global 16% Protein Rodent Diet, Harlan, Madison, Wis., USA) and water. All animal experiments were performed in compliance with Belgium laws on animal experimentation and after approval by the local animal ethics committee.
(§1) The biodistribution of [^18F]-1 was determined at 2, 10, 30 and 60 min, after injection in Sprague Dawley (SD) rats (n=3 per time point) while for [^18F]-2 the 30 min time point was not performed. Rats were injected intravenously with 0.7-1.1 MBq via a tail vein and euthanized at the time points indicated above, under isoflurane anesthesia. All tissues were dissected, weighed and counted for radioactivity in a gamma counter.
as §1, with “Dawley” for “Dawley (SD)”, “point).” for “point) while for [^18F]-2 the 30 min time point was not performed.”

Biodistribution, mean SUV (blood, 2 min after i.v. injection): 1.12 SUV
Biodistribution, mean SUV (blood, 10 min after i.v. injection): 0.74 SUV
Biodistribution, mean SUV (blood, 30 min after i.v. injection): 0.47 SUV
Biodistribution, mean SUV (blood, 60 min after i.v. injection): 0.50 SUV
Biodistribution, mean SUV (bone, 2 min after i.v. injection): 0.39 SUV
Biodistribution, mean SUV (bone, 10 min after i.v. injection): 0.34 SUV
Biodistribution, mean SUV (bone, 30 min after i.v. injection): 0.48 SUV
Biodistribution, mean SUV (bone, 60 min after i.v. injection): 0.58 SUV
Biodistribution, mean SUV (cerebellum, 2 min after i.v. injection): 2.25 SUV
Biodistribution, mean SUV (cerebellum, 10 min after i.v. injection): 3.17 SUV
Biodistribution, mean SUV (cerebellum, 30 min after i.v. injection): 3.93 SUV
Biodistribution, mean SUV (cerebellum, 60 min after i.v. injection): 4.41 SUV
Biodistribution, mean SUV (cerebrum + cerebellum, 2 min after i.v. injection): 2.03 SUV
Biodistribution, mean SUV (cerebrum + cerebellum, 10 min after i.v. injection): 3.11 SUV
Biodistribution, mean SUV (cerebrum + cerebellum, 30 min after i.v. injection): 3.98 SUV
Biodistribution, mean SUV (cerebrum + cerebellum, 60 min after i.v. injection): 4.95 SUV
Biodistribution, mean SUV (cortex, 2 min after i.v. injection): 3.50 SUV
Biodistribution, mean SUV (cortex, 10 min after i.v. injection): 8.37 SUV
Biodistribution, mean SUV (cortex, 30 min after i.v. injection): 6.96 SUV
Biodistribution, mean SUV (cortex, 60 min after i.v. injection): 8.11 SUV
Brain uptake, in words (ex-vivo biodistribution): very high
Defluorination judged from bone uptake over time (ex-vivo biodistribution): some defluorination
Peripheral uptake, in words (ex-vivo biodistribution): highest uptake in the liver
Biodistribution, mean SUV (heart, 2 min after i.v. injection): 3.54 SUV
Biodistribution, mean SUV (heart, 10 min after i.v. injection): 2.11 SUV
Biodistribution, mean SUV (heart, 30 min after i.v. injection): 1.41 SUV
Biodistribution, mean SUV (heart, 60 min after i.v. injection): 1.30 SUV
Biodistribution, mean SUV (hippocampus, 2 min after i.v. injection): 1.53 SUV
Biodistribution, mean SUV (hippocampus, 10 min after i.v. injection): 2.49 SUV
Biodistribution, mean SUV (hippocampus, 30 min after i.v. injection): 3.10 SUV
Biodistribution, mean SUV (hippocampus, 60 min after i.v. injection): 3.90 SUV
Biodistribution, mean SUV (kidneys, 2 min after i.v. injection): 4.97 SUV
Biodistribution, mean SUV (kidneys, 10 min after i.v. injection): 2.58 SUV
Biodistribution, mean SUV (kidneys, 30 min after i.v. injection): 2.08 SUV
Biodistribution, mean SUV (kidneys, 60 min after i.v. injection): 2.16 SUV
Biodistribution, mean SUV (liver, 2 min after i.v. injection): 9.74 SUV
Biodistribution, mean SUV (liver, 10 min after i.v. injection): 6.38 SUV
Biodistribution, mean SUV (liver, 30 min after i.v. injection): 4.66 SUV
Biodistribution, mean SUV (liver, 60 min after i.v. injection): 4.75 SUV
Biodistribution, mean SUV (lungs, 2 min after i.v. injection): 2.93 SUV
Biodistribution, mean SUV (lungs, 10 min after i.v. injection): 1.78 SUV
Biodistribution, mean SUV (lungs, 30 min after i.v. injection): 1.63 SUV
Biodistribution, mean SUV (lungs, 60 min after i.v. injection): 1.92 SUV
Biodistribution, mean SUV (muscle, 2 min after i.v. injection): 0.50 SUV
Biodistribution, mean SUV (muscle, 10 min after i.v. injection): 0.83 SUV
Biodistribution, mean SUV (muscle, 30 min after i.v. injection): 0.75 SUV
Biodistribution, mean SUV (muscle, 60 min after i.v. injection): 0.79 SUV
Biodistribution, mean SUV (pancreas, 2 min after i.v. injection): 4.30 SUV
Biodistribution, mean SUV (pancreas, 10 min after i.v. injection): 2.36 SUV
Biodistribution, mean SUV (pancreas, 30 min after i.v. injection): 2.06 SUV
Biodistribution, mean SUV (pancreas, 60 min after i.v. injection): 2.33 SUV
Biodistribution, mean SUV (pons, 2 min after i.v. injection): 1.53 SUV
Biodistribution, mean SUV (pons, 10 min after i.v. injection): 1.73 SUV
Biodistribution, mean SUV (pons, 30 min after i.v. injection): 1.76 SUV
Biodistribution, mean SUV (pons, 60 min after i.v. injection): 1.85 SUV
Biodistribution, mean SUV (rest of cerebrum, 2 min after i.v. injection): 2.06 SUV
Biodistribution, mean SUV (rest of cerebrum, 10 min after i.v. injection): 3.34 SUV
Biodistribution, mean SUV (rest of cerebrum, 30 min after i.v. injection): 4.37 SUV
Biodistribution, mean SUV (rest of cerebrum, 60 min after i.v. injection): 5.52 SUV
Biodistribution, mean SUV (spleen, 2 min after i.v. injection): 2.81 SUV
Biodistribution, mean SUV (spleen, 10 min after i.v. injection): 1.68 SUV
Biodistribution, mean SUV (spleen, 30 min after i.v. injection): 1.06 SUV
Biodistribution, mean SUV (spleen, 60 min after i.v. injection): 1.02 SUV
Biodistribution, mean SUV (striatum, 2 min after i.v. injection): 1.98 SUV
Biodistribution, mean SUV (striatum, 10 min after i.v. injection): 3.46 SUV
Biodistribution, mean SUV (striatum, 30 min after i.v. injection): 4.15 SUV
Biodistribution, mean SUV (striatum, 60 min after i.v. injection): 7.12 SUV
Biodistribution, mean SUV (whole cerebrum, 2 min after i.v. injection): 1.96 SUV
Biodistribution, mean SUV (whole cerebrum, 10 min after i.v. injection): 3.05 SUV
Biodistribution, mean SUV (whole cerebrum, 30 min after i.v. injection): 3.94 SUV
Biodistribution, mean SUV (whole cerebrum, 60 min after i.v. injection): 5.00 SUV
SMILES: C[C@H]1CN(c2ccc(C(F)(F)F)cc2)C(=O)c2c(C#Cc3cnc(N)cc3C[18F])cnn21 [Compound 1]
